One data set deals with T1, human GST-PIKFYVE (Homo sapiens, UniProt Q9Y2I7).
T1 construct: GST; purchased Carna biosciences 11-118
Briefly: ADP-Glo kinase assay, enzyme inhibition activity against human PIKFYVE (Carna biosciences). The format is biochemical. The following applies: inhibitory activity at final compound concentration 10 nM; 1 hour at room temperature. The procedure, abridged: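 Human GST-PIKFYVE (glutathione Sepharose-purified) was reacted with substrate and ATP for 1 h at room temperature in 50 mM MOPS, 1 mM DTT, pH 7.2, with compound at 10 nM final. ADP formed was read by ADP-Glo luminescence; inhibition was calculated against no-enzyme (100%) and no-compound (0%) controls.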
(In ADP-Glo the light output rises with the ADP produced.)

The target of another data set is T2, PIKFYVE (Homo sapiens, UniProt Q9Y2I7).
T2 construct: host or cells: HEK293 (ATCC, CRL-1573)
Briefly: NanoBRET TE Intracellular Kinase Assay, interaction of PIKFYVE and compounds in HEK293 cells. Type of data set: cell-based. As to conditions: IC50 class from BRET; HEK293 cells expressing PIKFYVE-NanoLuc; 2 hours incubation. The procedure, abridged: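 HEK293 cells transiently expressing a PIKFYVE-NanoLuc fusion were incubated 2 h at 37 °C, 5% CO2 with compound plus NanoBRET tracer. BRET was read after adding Nano-Glo substrate, giving intracellular target engagement by tracer displacement.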
For orientation: In BRET a luciferase serves as donor, and the signal depends on an acceptor being close.

Data set [1] in a line: Microsomal metabolic stability assay. Type of data set: in vitro ADME, human or CD1 male mouse. As to conditions: Clint class; 1 μM compound, 0.5 mg/ml microsomes, NADPH, UDPGA, Alamethicin; species not given. On the procedure:
The microsomal metabolic stability assay was performed using pooled human or CD1 male mouse interspecies microsomes. Supplemental cofactors (NADPH, UDPGA) and microsomal membrane pore-forming factor (Alamethicin) were added to promote cytochrome P450 (CYP), UGT reactivity to the target compound. Test compounds (1 μM incubation concentration) and microsomes (0.5 mg/ml incubation concentration) were diluted in 0.1 M phosphate buffer, pH 7.4, and incubated (37° C.). The reaction was initiated by the addition of NADPH (1 mM), UDPGA (1 mM) and Alamethicin (25 μg/mg). The incubation times were 0, 5, 15, 30, and 45 minutes, and at each time point, the reaction was terminated by adding acetonitrile containing internal standard (IS)(1:3 ratio). The plate was then sealed, centrifuged (3000 rpm, 20 min, 4° C.), and the supernatant was analyzed by LC-MS/MS. Hepatic extraction ratio values were calculated from the measured in vitro clearance and Intrinsic clearance (Clint) values were calculated from the assay results, and the respective Clint values were categorized into Low, Medium, and High categories based on the reference document (ref. Prostaglandins & other lipid mediators 136 (2018): 90-95).

Structures are written as SMILES.

Usually IC50 stands for the concentration that gives 50% inhibition. Read a high IC50 as weaker potency.

T1 sequence (Q9Y2I7 whole entry): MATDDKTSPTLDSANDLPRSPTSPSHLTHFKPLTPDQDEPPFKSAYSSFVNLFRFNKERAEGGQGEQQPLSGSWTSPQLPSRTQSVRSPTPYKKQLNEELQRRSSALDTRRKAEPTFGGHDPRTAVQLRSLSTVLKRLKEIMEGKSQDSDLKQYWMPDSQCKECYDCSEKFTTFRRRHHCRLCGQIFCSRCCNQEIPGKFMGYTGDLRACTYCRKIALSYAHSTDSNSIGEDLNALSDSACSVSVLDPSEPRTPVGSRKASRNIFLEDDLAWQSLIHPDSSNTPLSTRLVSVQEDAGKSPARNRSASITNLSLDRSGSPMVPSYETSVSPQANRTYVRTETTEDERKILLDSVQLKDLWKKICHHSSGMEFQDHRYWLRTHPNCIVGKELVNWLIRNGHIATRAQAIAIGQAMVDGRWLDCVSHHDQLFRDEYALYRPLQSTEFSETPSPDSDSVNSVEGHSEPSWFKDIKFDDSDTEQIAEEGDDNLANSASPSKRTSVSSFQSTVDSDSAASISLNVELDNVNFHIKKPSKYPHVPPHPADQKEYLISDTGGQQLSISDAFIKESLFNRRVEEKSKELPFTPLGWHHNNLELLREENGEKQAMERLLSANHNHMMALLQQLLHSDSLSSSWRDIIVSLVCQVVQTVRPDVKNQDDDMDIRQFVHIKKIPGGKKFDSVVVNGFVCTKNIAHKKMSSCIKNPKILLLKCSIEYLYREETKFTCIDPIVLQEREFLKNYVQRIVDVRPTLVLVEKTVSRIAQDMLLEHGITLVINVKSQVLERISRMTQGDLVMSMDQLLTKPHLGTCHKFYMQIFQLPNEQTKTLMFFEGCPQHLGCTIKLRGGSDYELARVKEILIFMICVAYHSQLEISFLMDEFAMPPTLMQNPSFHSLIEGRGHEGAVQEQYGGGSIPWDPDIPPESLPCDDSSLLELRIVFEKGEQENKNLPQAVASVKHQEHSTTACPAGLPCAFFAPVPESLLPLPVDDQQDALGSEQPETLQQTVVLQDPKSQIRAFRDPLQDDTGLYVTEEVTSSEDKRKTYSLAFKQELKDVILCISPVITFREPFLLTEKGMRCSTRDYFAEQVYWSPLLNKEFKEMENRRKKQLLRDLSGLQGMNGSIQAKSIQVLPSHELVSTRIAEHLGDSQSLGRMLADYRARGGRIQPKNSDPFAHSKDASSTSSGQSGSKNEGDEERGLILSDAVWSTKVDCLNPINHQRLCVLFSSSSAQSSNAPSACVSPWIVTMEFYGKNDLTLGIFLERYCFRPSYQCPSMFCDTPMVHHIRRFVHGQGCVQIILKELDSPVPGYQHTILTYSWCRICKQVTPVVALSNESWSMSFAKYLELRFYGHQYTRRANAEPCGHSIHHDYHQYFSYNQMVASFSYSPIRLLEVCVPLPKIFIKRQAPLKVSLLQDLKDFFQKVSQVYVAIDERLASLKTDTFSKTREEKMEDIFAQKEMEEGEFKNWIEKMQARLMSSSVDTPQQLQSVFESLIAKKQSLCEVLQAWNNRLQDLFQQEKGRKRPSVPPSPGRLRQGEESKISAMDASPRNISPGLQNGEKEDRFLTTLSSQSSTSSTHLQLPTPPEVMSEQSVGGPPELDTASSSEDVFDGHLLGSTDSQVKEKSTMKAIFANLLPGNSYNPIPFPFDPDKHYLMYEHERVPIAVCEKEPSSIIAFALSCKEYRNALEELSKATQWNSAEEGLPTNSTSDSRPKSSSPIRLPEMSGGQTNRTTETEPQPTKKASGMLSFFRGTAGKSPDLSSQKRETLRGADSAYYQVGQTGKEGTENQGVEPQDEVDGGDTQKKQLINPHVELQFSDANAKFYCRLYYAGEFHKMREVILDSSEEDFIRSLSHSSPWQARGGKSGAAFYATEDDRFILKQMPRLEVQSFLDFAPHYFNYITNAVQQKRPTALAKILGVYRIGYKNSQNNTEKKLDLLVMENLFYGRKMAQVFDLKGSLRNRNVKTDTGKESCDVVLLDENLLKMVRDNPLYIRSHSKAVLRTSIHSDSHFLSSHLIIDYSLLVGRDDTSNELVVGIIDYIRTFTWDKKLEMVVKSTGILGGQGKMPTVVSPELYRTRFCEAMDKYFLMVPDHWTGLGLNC
T2 sequence (Q9Y2I7 whole entry): as above

On to `Cc1cccc(/C=N/Nc2nc(N3CCOCC3)nc3c(-c4ccncc4)cccc23)c1` [Example 212, (E)-4-(4-(2-(3-methylbenzylidene)hydrazinyl)-8-(pyridin-4-yl)quinazolin-2-yl)morpholine], for which the “ADP-Glo kinase assay (%, 10 nM)” value at human GST-PIKFYVE was 88.34%. The same molecule came in with an IC50 on PIKFYVE of no more than 10 nM. For the same molecule, the Microsomal metabolic stability result in data set [1] is on record as “Low (Low <8.8,)”.

In the case of `COc1ccc(C(=O)Cn2cnc3c(N/N=C/c4cccc(C)c4)nc(N4CCOCC4)nc32)cc1` [Example 39, (E)-1-(4-methoxyphenyl)-2-(6-(2-(3-methylbenzylidene)hydrazinyl)-2-morpholino-9H-purin-9-yl)ethan-1-one], the “ADP-Glo kinase assay (%, 10 nM)” value on human GST-PIKFYVE worked out at 74.99%. This molecule also had an IC50 against PIKFYVE of 10 to 20 nM. For the same molecule, in data set [1], the Microsomal metabolic stability entry is “Medium (Medium 8.8~48,)”.

On to `Cc1cccc(/C=N/Nc2nc(N3CCOCC3)nc3c2nc(C)n3-c2ccccc2)c1` [Example 165, (E)-4-(8-methyl-6-(2-(3-methylbenzylidene)hydrazinyl)-9-phenyl-9H-purin-2-yl)morpholine], for which the “ADP-Glo kinase assay (%, 10 nM)” value at human GST-PIKFYVE is 73.72%. Further, the half-inhibitory concentration (IC50) on PIKFYVE lay within 10 to 20 nM. In addition, in data set [1], the Microsomal metabolic stability result was “medium”.

As to `Cc1cccc(/C=N/Nc2nc(N3CCOCC3)nc3c2ncn3-c2cccc(OC(F)(F)F)c2)c1` [Example 128, (E)-4-(6-(2-(3-methylbenzylidene)hydrazinyl)-9-(3-(trifluoromethoxy)phenyl)-9H-purin-2-yl)morpholine], on human GST-PIKFYVE, the “ADP-Glo kinase assay (%, 10 nM)” value turned out to be 65.10%. The molecule further registered an IC50 at PIKFYVE of no more than 10 nM. Besides, the Microsomal metabolic stability entry in data set [1] is listed as “Low (Low <8.8,)”.

As for `Cc1cccc(-c2ccn(-c3nc(N4CCOCC4)nc4c3ncn4CC(=O)c3ccccn3)n2)c1` [Example 64, 2-(2-morpholino-6-(3-(m-tolyl)-1H-pyrazol-1-yl)-9H-purin-9-yl)-1-(pyridin-2-yl)ethan-1-one], at human GST-PIKFYVE, the “ADP-Glo kinase assay (%, 10 nM)” value was 82.48%. In addition, the IC50 against PIKFYVE was no more than 10 nM. Also, in data set [1], the Microsomal metabolic stability result is “Medium (Medium 8.8~48,)”.

As to `Cc1cccc(/C=N/Nc2nc(N3CCOCC3)nc3c2ncn3CC(=O)c2ccccn2)c1` [Example 23, (E)-2-(6-(2-(3-methylbenzylidene)hydrazinyl)-2-morpholino-9H-purin-9-yl)-1-(pyridin-2-yl)ethan-1-one], at human GST-PIKFYVE, the “ADP-Glo kinase assay (%, 10 nM)” value is on record as 90.82%. Besides, the IC50 against PIKFYVE is no more than 10 nM. Also, the Microsomal metabolic stability entry in data set [1] was “Medium (Medium 8.8~48,)”.

Take `Cc1cccc(-c2ccn(-c3nc(N4CCOCC4)nc4c3ncn4-c3ccccc3)n2)c1` [Example 136, 4-(9-phenyl-6-(3-(m-tolyl)-1H-pyrazol-1-yl)-9H-purin-2-yl)morpholine]: the “ADP-Glo kinase assay (%, 10 nM)” value at human GST-PIKFYVE was 78.65%. The molecule further displayed a 50% inhibitory concentration (IC50) on PIKFYVE of no more than 10 nM. The Microsomal metabolic stability result in data set [1] is “Medium (Medium 8.8~48,)”.

As to `Cc1cccc(/C=N/Nc2nc(N3CCOCC3)nc3c2ncn3-c2cccc(C)n2)c1` [Example 141, (E)-4-(6-(2-(3-methylbenzylidene)hydrazinyl)-9-(6-methylpyridin-2-yl)-9H-purin-2-yl)morpholine], the “ADP-Glo kinase assay (%, 10 nM)” value on human GST-PIKFYVE was 88.29%. Further, the IC50 at PIKFYVE is no more than 10 nM. Further, the Microsomal metabolic stability result in data set [1] was “medium”.

As to `Cc1cccc(/C=N/n2cnc3c(Nc4ccncc4)nc(N4CCOCC4)nc32)c1` [Example 166, (E)-9-((3-methylbenzylidene)amino)-2-morpholino-N-(pyridin-4-yl)-9H-purin-6-amine], on human GST-PIKFYVE, the “ADP-Glo kinase assay (%, 10 nM)” value was 90.77%. Further, the IC50 against PIKFYVE is no more than 10 nM. Besides, in data set [1], the Microsomal metabolic stability result was “medium”.

On to `Cc1cccc(/C=N/Nc2nc(N3CCOCC3)nc3c2ncn3-c2cccc(C#N)c2)c1` [Example 126, (E)-3-(6-(2-(3-methylbenzylidene)hydrazinyl)-2-morpholino-9H-purin-9-yl)benzonitrile], for which, on human GST-PIKFYVE, the “ADP-Glo kinase assay (%, 10 nM)” value is 87.21%. This molecule also registered an IC50 at PIKFYVE of no more than 10 nM. In data set [1], the Microsomal metabolic stability entry is “Low (Low <8.8,)”.

With `Cc1ccc(C(=O)Cn2cnc3c(N/N=C/c4cccc(C)c4)nc(N4CCOCC4)nc32)cc1` [Example 42, (E)-2-(6-(2-(3-methylbenzylidene)hydrazinyl)-2-morpholino-9H-purin-9-yl)-1-(p-tolyl)ethan-1-one], on human GST-PIKFYVE, the “ADP-Glo kinase assay (%, 10 nM)” value is on record as 81.60%. In addition, the IC50 at PIKFYVE was no more than 10 nM. Moreover, in data set [1], the Microsomal metabolic stability result is “Low (Low <8.8,)”.

`O=C(Cn1cnc2c(N/N=C/c3c[nH]c4ccccc34)nc(N3CCOCC3)nc21)c1ccccn1` [Example 24, (E)-2-(6-(2-((1H-indol-3-yl)methylene)hydrazinyl)-2-morpholino-9H-purin-9-yl)-1-(pyridin-2-yl)ethan-1-one]: on human GST-PIKFYVE, the “ADP-Glo kinase assay (%, 10 nM)” value was 72.15%. For the same molecule, the IC50 on PIKFYVE lay within 10 to 20 nM. The Microsomal metabolic stability entry in data set [1] is “Medium (Medium 8.8~48,)”.

For `Cc1cccc(/C=N/Nc2nc(N3CCOCC3)nc3c2ncn3-c2ccnc(C)c2)c1` [Example 140, (E)-4-(6-(2-(3-methylbenzylidene)hydrazinyl)-9-(2-methylpyridin-4-yl)-9H-purin-2-yl)morpholine], at human GST-PIKFYVE, the “ADP-Glo kinase assay (%, 10 nM)” value is 92.50%. Moreover, the IC50 against PIKFYVE was no more than 10 nM. For the same molecule, in data set [1], the Microsomal metabolic stability result is “Medium (Medium 8.8~48,)”.

Turning to `C(=N\Nc1nc(N2CCOCC2)nc2c1ncn2-c1ccccc1)/c1c[nH]c2ccccc12` [Example 132, (E)-4-(6-(2-((1H-indol-3-yl)methylene)hydrazinyl)-9-phenyl-9H-purin-2-yl)morpholine], at human GST-PIKFYVE, the “ADP-Glo kinase assay (%, 10 nM)” value is 86.76%. The molecule further came in with a 50% inhibitory concentration (IC50) against PIKFYVE of no more than 10 nM. Also, the Microsomal metabolic stability entry in data set [1] is given as “Medium (Medium 8.8~48,)”.

Take `COc1ccc(-n2cnc3c(N/N=C/c4cccc(C)c4)nc(N4CCOCC4)nc32)cc1` [Example 120, (E)-4-(9-(4-methoxyphenyl)-6-(2-(3-methylbenzylidene)hydrazinyl)-9H-purin-2-yl)morpholine]: at human GST-PIKFYVE, the “ADP-Glo kinase assay (%, 10 nM)” value was 88.76%. Further, the concentration for half-maximal inhibition (IC50) against PIKFYVE is no more than 10 nM. For the same molecule, the Microsomal metabolic stability result in data set [1] is “medium”.

Source of the values: patent US20250388582A1, “NOVEL BICYCLIC HETEROARYL COMPOUND AND USE THEREOF” (ILDONG PHARMACEUTICAL CO., LTD., priority 2022, published 2025).
